According to patent US4970153A, “Method of producing acid urease and the use of the urease” (Nagase & Co., Ltd., priority 1987, dated 1990):
Read-outs that look alike come from different tables or passages of the source.

What was measured:
[1] = molecular target: T1, acid-urease obtained by culturing Lactobacillus fermentum TK 1214 (Limosilactobacillus fermentum, UniProt P26929); assay: Substrate specificity of acid urease (colorimetric assay of ammonia formed); format: biochemical; settings: substance used as substrate of acid urease
T1 sequence (P26929 1-573): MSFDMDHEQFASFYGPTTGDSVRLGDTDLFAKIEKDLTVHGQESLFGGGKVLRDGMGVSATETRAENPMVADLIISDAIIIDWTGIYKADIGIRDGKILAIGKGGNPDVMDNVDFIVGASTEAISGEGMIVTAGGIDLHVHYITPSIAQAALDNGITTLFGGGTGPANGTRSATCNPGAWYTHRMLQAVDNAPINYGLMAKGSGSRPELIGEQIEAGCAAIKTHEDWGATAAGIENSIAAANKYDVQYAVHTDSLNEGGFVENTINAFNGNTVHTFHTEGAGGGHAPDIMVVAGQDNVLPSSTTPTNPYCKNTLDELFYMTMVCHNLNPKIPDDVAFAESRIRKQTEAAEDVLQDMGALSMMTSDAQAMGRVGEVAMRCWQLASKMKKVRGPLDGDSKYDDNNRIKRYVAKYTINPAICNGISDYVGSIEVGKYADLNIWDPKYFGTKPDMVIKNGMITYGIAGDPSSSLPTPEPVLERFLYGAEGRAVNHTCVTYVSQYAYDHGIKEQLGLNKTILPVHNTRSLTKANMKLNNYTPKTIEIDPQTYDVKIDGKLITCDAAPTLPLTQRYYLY
T1 sequence (P26930 1-124 partner): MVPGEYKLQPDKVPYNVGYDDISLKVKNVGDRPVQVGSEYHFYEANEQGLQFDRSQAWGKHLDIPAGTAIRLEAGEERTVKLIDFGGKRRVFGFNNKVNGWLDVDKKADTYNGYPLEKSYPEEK
T1 sequence (P26931 1-100 partner): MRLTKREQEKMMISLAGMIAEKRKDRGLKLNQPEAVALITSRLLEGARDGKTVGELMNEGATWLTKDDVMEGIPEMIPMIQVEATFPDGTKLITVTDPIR
Experimental: (2) Substrate specificity:
(§1) by Colorimetric assay of ammonia formed by reaction with urea.
(§2) 0.1M acetate buffer (pH 4.0): 0.6 ml
(§3) React at 37° C. for 10 minutes, add 0.2 ml of 1.0N H2 SO4 and stop the reaction. Take out a part of reaction solution and give coloring by Indophenol reagent. Measure the absorbance at 630 nm, and determine quantity of decomposed urea by assaying formed ammonia.
(§4) 1 unit activity (I.U.) of acid-urease is quantity of enzyme which decomposes 1 μmole of urea at 37° C., pH 4.0 for one minute.

[2] = molecular target: T1, acid-urease obtained by culturing Lactobacillus fermentum TK 1214; assay: Inhibition and activation of acid urease by additives; format: biochemical
Experimental: (5) Inhibition and activation:
as §1, §2, §3, §4

[3] = molecular target: T1, acid-urease obtained by culturing Lactobacillus fermentum TK 1214; assay: Stabilization of acid urease by additives (treated at 65° C. for 10 minutes); format: biochemical; settings: additive 1 mM, not added: 80
Experimental: (6) Stabilization (treated at 65° C. for 10 minutes):
as §1, §3

[4] = molecular target: acid urease from Lactobacillus fermentum TK 1214 (Limosilactobacillus fermentum, UniProt P26929)
[5] = molecular target: neutral urease from sword beans

| SMILES | relevant activity (%) [1] | Relative activity (%) after heat treatment [3] | further results |
| --- | --- | --- | --- |
| C=CCNC(N)=O [Allylurea] | 0% | – | – |
| O=C(NO)c1ccccc1 [Benzohydroxamic acid] | 0% | – | Relative activity (%) ([2]; additive 0.5 mM): 50% |
| CCCCCCCC(=O)NO [Caprilohydroxamic acid] | 0% | – | Relative activity (%) ([2]; additive 0.04 mM): 50% |
| N[C@@H](CS)C(=O)O [Cysteine] | – | 100% | Relative activity (%) ([2]; additive 1 mM): 100% |
| O[C@H](CS)[C@@H](O)CS [Dithioerithritol] | – | 100% | – |
| O[C@H](CS)[C@H](O)CS [Dithiothreitol] | – | 100% | – |
| O=C(O)CN(CCN(CC(=O)O)CC(=O)O)CC(=O)O [EDTA-4Na] | – | 100% | – |
| CCO [Ethanol] | – | – | Relative activity (%) [2]: 50%; Ki (inhibitor constant) value against ethanol [4]: about 40%; Ki (inhibitor constant) value against ethanol [5]: about 9% |
| CCNC(N)=O [Ethylurea] | 0% | – | – |
| N[C@@H](CCC(=O)N[C@@H](CS)C(=O)NCC(=O)O)C(=O)O [Glutathione] | – | 100% | Relative activity (%) [2]: 100% |
| NO [Hydroxylamine] | 0% | – | – |
| NC(=O)NO [Hydroxyurea] | 0% | – | – |
| OCCS [Mercapto ethanol] | – | 100% | Relative activity (%) ([2]; additive 1 mM): 100% |
| CNC(N)=O [Methylurea] | 0% | – | – |
| O=C(NO)c1cccnc1 [Nicotinhydroxamic acid] | 0% | – | Relative activity (%) ([2]; additive 0.5 mM): 50% |
| NC(N)=S [Thiourea] | 0% | – | – |
| NC(N)=O [Urea] | 100% | – | – |
| O=C([O-])c1cc[c]([Hg][Cl])cc1 [p-Chloromercuricbenzoate] | – | – | Relative activity (%) ([2]; additive 0.05 mM): 50% |
